Reference: patent US8207172B2 (Bayer Intellectual Property GmbH, priority 2004, dated 2012)
Structures can show the parent of a compound that is named as a salt.

Tests used:
[1] = tested on: A431 cells (human epidermoid carcinoma); experiment: In vitro tumor cell proliferation assay (Cell Titer-Glo luminescent cell viability), A431; format: cell-based; conditions: A-431, 72 h, 72 hours of drug exposure, ATP luminescence readout, read-out: IC50, anti-proliferative activity (inhibition of cell proliferation)
Outline: (§1)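 CellTiter-Glo luminescence (ATP content of metabolically active cells) after 72 h compound exposure at 37° C gave IC50s.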

[2] = tested on: BT474 (human breast carcinoma); experiment: In vitro tumor cell proliferation assay (Cell Titer-Glo luminescent cell viability), BT474; format: cell-based; conditions: BT-474, 72 h, BT474 cells, 72 hours of drug exposure, ATP luminescence readout, read-out: IC50, anti-proliferative activity (inhibition of cell proliferation)
Outline: as §1

| SMILES | IC50 [1] [µM] | IC50 [2] [µM] |
| --- | --- | --- |
| OCCCn1ncc2c1CCc1c-2sc2ncnc(Nc3ccc(OCc4cccc(F)c4)c(Cl)c3)c12 [Example 268, 3-[6-({3-chloro-4-[(3-fluorobenzyl)oxy]phenyl}amino)-4,5-dihydro-3H-pyrimido[5′,4′:4,5]thieno[2,3-e]indazol-3-yl]propan-1-ol] | ≤ 50 | ≤ 1 |
| CCN1CCC(Cn2cc3c(n2)CCc2c-3sc3ncnc(Nc4ccc(OCc5cccc(F)c5)c(Cl)c4)c23)CC1 [Example 244, N-{3-chloro-4-[(3-fluorobenzyl)oxy]phenyl}-2-[(1-ethylpiperidin-4-yl)methyl]-4,5-dihydro-2H-pyrimido[5′,4′:4,5]thieno[2,3-e]indazol-6-amine] | ≤ 5 | ≤ 1 |
| COC[C@@H]1CCCN1CCn1cc2c(n1)CCc1c-2sc2ncnc(Nc3ccc(F)c(Cl)c3)c12 [Example 31, N-(3-chloro-4-fluorophenyl)-2-{2-[(2S)-2-(methoxymethyl)pyrrolidin-1-yl]ethyl}-4,5-dihydro-2H-pyrimido[5′,4′:4,5]thieno[2,3-e]indazol-6-amine] | ≤ 5 | ≤ 5 |
| CC(C)N1CCC(n2cc3c(n2)CCc2c-3sc3ncnc(Nc4ccc(OCc5cccc(F)c5)c(Cl)c4)c23)CC1 [Example 227, N-{3-chloro-4-[(3-fluorobenzyl)oxy]phenyl}-2-(1-isopropylpiperidin-4-yl)-4,5-dihydro-2H-pyrimido[5′,4′:4,5]thieno[2,3-e]indazol-6-amine] | ≤ 5 | ≤ 1 |
| COCCNCCn1cc2c(n1)CCc1c-2sc2ncnc(Nc3ccc4c(cnn4Cc4cccc(F)c4)c3)c12 [Example 280, N-[1-(3-fluorobenzyl)-1H-indazol-5-yl]-2-{2-[(2-methoxyethyl)amino]ethyl}-4,5-dihydro-2H-pyrimido[5′,4′:4,5]thieno[2,3-e]indazol-6-amine] | ≤ 5 | ≤ 1 |
| OCCN(CCO)CCn1cc2c(n1)CCc1c-2sc2ncnc(Nc3ccc(OCc4cccc(F)c4)c(Cl)c3)c12 [Example 64, 2,2′-({2-[6-({3-chloro-4-[(3-fluorobenzyl)oxy]phenyl}amino)-4,5-dihydro-2H-pyrimido[5′,4′:4,5]thieno[2,3-e]indazol-2-yl]ethyl}imino)diethanol] | ≤ 5 | ≤ 1 |
| COCCN1CCN(CCn2cc3c(n2)CCc2c-3sc3ncnc(Nc4ccc5c(cnn5Cc5ccccc5)c4)c23)CC1 [Example 308, N-(1-benzyl-1H-indazol-5-yl)-2-{2-[4-(2-methoxyethyl)piperazin-1-yl]ethyl}-4,5-dihydro-2H-pyrimido[5′,4′:4,5]thieno[2,3-e]indazol-6-amine] | ≤ 50 | ≤ 1 |
| CN1CCN(CCn2cc3c(n2)CCc2c-3sc3ncnc(Nc4ccc(OCc5cccc(C#N)c5)c(Cl)c4)c23)CC1 [Example 336, 3-{[2-chloro-4-({2-{2-(4-methylpiperazin-1-yl)ethyl]-4,5-dihydro-2H-pyrimido[5′,4′:4,5]thieno[2,3-e]indazol-6-yl}amino)phenoxy]methyl} benzonitrile] | ≤ 5 | ≤ 1 |
| Fc1ccc(Nc2ncnc3sc4c(c23)CCc2n[nH]cc2-4)cc1Cl [Example 40, N-(3-chloro-4-fluorophenyl)-4,5-dihydro-2H-pyrimido[5′,4′:4,5]thieno[2,3-e]indazol-6-amine] | ≤ 5 | ≤ 5 |
| O=C(CN1CCCC1)N1CCC(Cn2cc3c(n2)CCc2c-3sc3ncnc(Nc4ccc(OCc5cccc(F)c5)c(Cl)c4)c23)CC1 [Example 239, N-{3-chloro-4-[(3-fluorobenzyl)oxy]phenyl}-2-{[1-(pyrrolidin-1-ylacetyl)piperidin-4-yl]methyl}-4,5-dihydro-2H-pyrimido[5′,4′:4,5]thieno[2,3-e]indazol-6-amine] | ≤ 5 | ≤ 1 |
| CCNC[C@@H](O)Cn1cc2c(n1)CCc1c-2sc2ncnc(Nc3ccc(OCc4cccc(F)c4)c(Cl)c3)c12 [Example 157, (2R)-1-[6-({3-chloro-4-[(3-fluorobenzyl)oxy]phenyl}amino)-4,5-dihydro-2H-pyrimido[5′,4′:4,5]thieno[2,3-e]indazol-2-yl]-3-(ethylamino)propan-2-ol trifluoroacetate (salt)] | ≤ 50 | ≤ 1 |
| OCCNCCn1ncc2c1CCc1c-2sc2ncnc(Nc3ccc(F)c(Cl)c3)c12 [Example 96, 2-[(2-{6-[(3-chloro-4-fluorophenyl)amino]-4,5-dihydro-3H-pyrimido[5′,4′:4,5]thieno[2,3-e]indazol-3-yl}ethyl)amino]ethanol] | ≤ 5 | ≤ 1 |
| COCCN1CCN(C[C@@H](O)Cn2ncc3c2CCc2c-3sc3ncnc(Nc4ccc(OCc5cccc(F)c5)c(Cl)c4)c23)CC1 [Example 134, (2R)-1-[6-({3-chloro-4-[(3-fluorobenzyl)oxy]phenyl}amino)-4,5-dihydro-3H-pyrimido[5′,4′:4,5]thieno[2,3-e]indazol-3-yl]-3-[4-(2-methoxyethyl)piperazin-1-yl]propan-2-ol] | ≤ 50 | ≤ 1 |
| Fc1ccc(Nc2ncnc3sc4c(c23)CCc2nn(CCN3CCCCC3)cc2-4)cc1Cl [Example 11, N-(3-chloro-4-fluorophenyl)-2-(2-piperidin-1-ylethyl)-4,5-dihydro-2H-pyrimido[5′,4′:4,5]thieno[2,3-e]indazol-6-amine] | ≤ 5 | ≤ 5 |
| COCCNC[C@@H](O)Cn1ncc2c1CCc1c-2sc2ncnc(Nc3ccc(OCc4cccc(F)c4)c(Cl)c3)c12 [Example 173, (2R)-1-[6-({3-chloro-4-[(3-fluorobenzyl)oxy]phenyl}amino)-4,5-dihydro-3H-pyrimido[5′,4′:4,5]thieno[2,3-e]indazol-3-yl]-3-[(2-methoxyethyl)amino]propan-2-ol trifluoroacetate (salt)] | ≤ 5 | ≤ 1 |
| CN(C)C1CCN(CCn2ncc3c2CCc2c-3sc3ncnc(Nc4ccc5c(cnn5Cc5cccc(F)c5)c4)c23)C1 (centres unmarked) [Example 293, 3-{2-[3-(dimethylamino)pyrrolidin-1-yl]ethyl}-N-[1-(3-fluorobenzyl)-1H-indazol-5-yl]-4,5-dihydro-3H-pyrimido[5′,4′:4,5]thieno[2,3-e]indazol-6-amine] | ≤ 50 | ≤ 1 |
| Cc1cccc(COc2ccc(Nc3ncnc4sc5c(c34)CCc3nn(CCN4CCOCC4)cc3-5)cc2Cl)n1 [Example 119, N-{3-chloro-4-[(6-methylpyridin-2-yl)methoxy]phenyl}-2-(2-morpholin-4-ylethyl)-4,5-dihydro-2H-pyrimido[5′,4′:4,5]thieno[2,3-e]indazol-6-amine] | ≤ 50 | ≤ 5 |
| CS(=O)(=O)CCNCCn1ncc2c1CCc1c-2sc2ncnc(Nc3ccc(OCc4cccc(F)c4)c(Cl)c3)c12 [Example 85, N-{3-chloro-4-[(3-fluorobenzyl)oxy]phenyl}-3-(2-{[2-(methylsulfonyl)ethyl]amino}ethyl)-4,5-dihydro-3H-pyrimido[5′,4′:4,5]thieno[2,3-e]indazol-6-amine] | ≤ 5 | ≤ 1 |
| Fc1ccc(Nc2ncnc3sc4c(c23)CCc2c-4cnn2CCNCCN2CCOCC2)cc1Cl [Example 93, N-(3-chloro-4-fluorophenyl)-3-{2-[(2-morpholin-4-ylethyl)amino]ethyl}-4,5-dihydro-3H-pyrimido[5′,4′:4,5]thieno[2,3-e]indazol-6-amine] | ≤ 5 | ≤ 5 |
| OCCn1ncc2c1CCc1c-2sc2ncnc(Nc3ccc4c(cnn4Cc4ccccc4)c3)c12 [Example 310, 2-{6-[(1-benzyl-1H-indazol-5-yl)amino]-4,5-dihydro-3H-pyrimido[5′,4′:4,5]thieno[2,3-e]indazol-3-yl}ethanol] | ≤ 5 | ≤ 1 |
| Clc1cc(Nc2ncnc3sc4c(c23)CCc2nn(CCN3CCOCC3)cc2-4)ccc1OCc1ccccn1 [Example 106, N-[3-chloro-4-(pyridin-2-ylmethoxy)phenyl]-2-(2-morpholin-4-ylethyl)-4,5-dihydro-2H-pyrimido[5′,4′:4,5]thieno[2,3-e]indazol-6-amine] | ≤ 50 | ≤ 1 |
| O[C@H](CNCCN1CCOCC1)Cn1ncc2c1CCc1c-2sc2ncnc(Nc3ccc(OCc4cccc(F)c4)c(Cl)c3)c12 [Example 165, (2R)-1-[6-({3-chloro-4-[(3-fluorobenzyl)oxy]phenyl}amino)-4,5-dihydro-3H-pyrimido[5′,4′:4,5]thieno[2,3-e]indazol-3-yl]-3-[(2-morpholin-4-ylethyl)amino]propan-2-ol] | ≤ 50 | ≤ 1 |
| CC(C)NC[C@@H](O)Cn1ncc2c1CCc1c-2sc2ncnc(Nc3ccc(OCc4cccc(F)c4)c(Cl)c3)c12 [Example 163, (2R)-1-[6-({3-chloro-4-[(3-fluorobenzyl)oxy]phenyl}amino)-4,5-dihydro-3H-pyrimido[5′,4′:4,5]thieno[2,3-e]indazol-3-yl]-3-(isopropylamino)propan-2-ol trifluoroacetate (salt)] | ≤ 50 | ≤ 5 |
| CN1CCN(C(=O)Cn2cc3c(n2)CCc2c-3sc3ncnc(Nc4ccc(OCc5cccc(F)c5)c(Cl)c4)c23)CC1 [Example 183, N-{3-chloro-4-[(3-fluorobenzyl)oxy]phenyl}-2-[2-(4-methylpiperazin-1-yl)-2-oxoethyl]-4,5-dihydro-2H-pyrimido[5′,4′:4,5]thieno[2,3-e]indazol-6-amine] | ≤ 5 | ≤ 1 |
| CN(C)[C@@H]1CCN(CC(=O)N2CCC(Cn3cc4c(n3)CCc3c-4sc4ncnc(Nc5ccc(OCc6cccc(F)c6)c(Cl)c5)c34)CC2)C1 [Example 234, N-{3-chloro-4-[(3-fluorobenzyl)oxy]phenyl}-2-[(1-{[(3R)-3-(dimethylamino)pyrrolidin-1-yl]acetyl}piperidin-4-yl)methyl]-4,5-dihydro-2H-pyrimido[5′,4′:4,5]thieno[2,3-e]indazol-6-amine trifluoroacetate] | ≤ 50 | ≤ 5 |
